Experimental data taken from a compilation of properties of binary mixtures (doi:10.1021/acs.jced.3c00537).

Experiment: xn = mol fraction of the nth substance listed
Settings: 100 kPa

CC[n+]1ccn(C)c1.COP(=O)([O-])OC + CCO
viscosity [mPa·s]
Settings | 293.15 K | 298.15 K | 303.15 K | 308.15 K | 313.15 K | 318.15 K | 323.15 K | 328.15 K | 333.15 K | 338.15 K
x1 = 0.1004 | 3.47 | 3.1 | 2.77 | 2.5 | 2.28 | 2.09 | 1.95 | 1.85 | – | 1.55
x1 = 0.2032 | 7.38 | 6.54 | 5.8 | 5.17 | 4.66 | 4.26 | 3.94 | 3.61 | 3.26 | 3.07
x1 = 0.3007 | 14.45 | 12.4 | – | 9.4 | – | – | 6.75 | 6.22 | 5.73 | 5.32
x1 = 0.3994 | 26.4 | 22.01 | 18.49 | 15.67 | 13.43 | 11.74 | 10.36 | 9.26 | 8.31 | 7.61
x1 = 0.5013 | 46.78 | – | 30.72 | 25.48 | 21.4 | 18.27 | – | 13.67 | 11.97 | 10.68
x1 = 0.5994 | 79.2 | 61.56 | – | 38.81 | – | 26.33 | 22.2 | 19.04 | 16.4 | 14.35
x1 = 0.7006 | – | – | 72.82 | 57.48 | 45.56 | 36.84 | 30.39 | – | – | 18.37
x1 = 0.8011 | 176.7 | – | 106.5 | 80.4 | 62.91 | 48.34 | – | 31.5 | 26.15 | 21.94
x1 = 0.8988 | 241 | 192.2 | 140.5 | 106.5 | 78.6 | 62.43 | 49.31 | 39.47 | 32.04 | –
x1 = 1 | 348 | 247 | 178.9 | – | – | 79.1 | 62.91 | 50.39 | – | 33.59

COP(=O)([O-])OC.Cn1cc[n+](C)c1 + CCO
viscosity [mPa·s]
Settings | 293.15 K | 298.15 K | 303.15 K | 308.15 K | 313.15 K | 318.15 K | 323.15 K | 328.15 K | 333.15 K | 338.15 K
x1 = 0.1005 | – | 2.91 | – | 2.38 | 2.15 | 1.9 | 1.74 | 1.54 | – | 1.22
x1 = 0.2006 | 6.54 | 5.92 | – | 4.71 | 4.29 | 3.89 | 3.5 | 3.19 | 2.93 | 2.67
x1 = 0.3005 | 13.17 | 11.4 | – | 8.77 | 7.8 | – | – | 5.87 | – | 5.14
x1 = 0.4031 | 24.71 | 20.72 | 17.29 | 14.75 | – | 11.17 | 9.96 | 8.98 | 8.12 | 7.43
x1 = 0.4996 | 42.18 | 33.84 | 27.62 | 22.9 | 19.31 | 16.65 | 14.39 | – | 11.07 | –
x1 = 0.6043 | 70.07 | 54.83 | 43.41 | 35.07 | 28.85 | 24.13 | 20.39 | 17.54 | 15.17 | 13.3
x1 = 0.7009 | 111.3 | – | 64.5 | 50.89 | 40.71 | – | – | 22.99 | – | 16.89
x1 = 0.797 | – | 118.8 | 89.5 | 69.03 | – | 43.34 | – | – | 24.3 | 20.61
x1 = 0.8995 | 235.4 | – | 125.2 | – | 72.72 | 58.89 | – | 36.94 | – | 25.28
x1 = 1 | 331 | 232.5 | 165.8 | – | 93.5 | – | 57.09 | 45.49 | 36.7 | 30.05

CCO + CC[n+]1ccn(C)c1.COP(=O)([O-])OC
x2 = 0
Settings | viscosity [mPa·s]
293.15 K | 1.18
303.15 K | 0.976
308.15 K | 0.89
313.15 K | 0.815
318.15 K | 0.75
323.15 K | 0.694
333.15 K | 0.603
338.15 K | 0.564

CCO + COP(=O)([O-])OC.Cn1cc[n+](C)c1
x2 = 0
Settings | viscosity [mPa·s]
293.15 K | 1.18
303.15 K | 0.976
313.15 K | 0.815
318.15 K | 0.75
323.15 K | 0.694
333.15 K | 0.603
338.15 K | 0.564
